Source: BindingDB's records for doi:10.1016/j.chembiol.2010.01.008 (University of Washington, 2010)
Where “and” joins values, the source holds several entries; their conditions need not be identical. Identical values can stand only once.

Key:
Details in all cases: pH 7.5
[1] = target: Serine/threonine-protein kinase PAK 5 (Homo sapiens) (UniProt Q9P286); assay: In vitro activity assay using various kinases.
[2] = target: Tyrosine-protein kinase CSK (Homo sapiens, UniProt P41240); assay: In Vitro Activity Assay
Excerpt: (§1) In vitro activity assay using various kinases.

[3] = target: Tyrosine-protein kinase ABL1 (Homo sapiens, UniProt P00519); assay: In Vitro Activity Assay
Tyrosine-protein kinase ABL1, sequence (P00519 whole entry): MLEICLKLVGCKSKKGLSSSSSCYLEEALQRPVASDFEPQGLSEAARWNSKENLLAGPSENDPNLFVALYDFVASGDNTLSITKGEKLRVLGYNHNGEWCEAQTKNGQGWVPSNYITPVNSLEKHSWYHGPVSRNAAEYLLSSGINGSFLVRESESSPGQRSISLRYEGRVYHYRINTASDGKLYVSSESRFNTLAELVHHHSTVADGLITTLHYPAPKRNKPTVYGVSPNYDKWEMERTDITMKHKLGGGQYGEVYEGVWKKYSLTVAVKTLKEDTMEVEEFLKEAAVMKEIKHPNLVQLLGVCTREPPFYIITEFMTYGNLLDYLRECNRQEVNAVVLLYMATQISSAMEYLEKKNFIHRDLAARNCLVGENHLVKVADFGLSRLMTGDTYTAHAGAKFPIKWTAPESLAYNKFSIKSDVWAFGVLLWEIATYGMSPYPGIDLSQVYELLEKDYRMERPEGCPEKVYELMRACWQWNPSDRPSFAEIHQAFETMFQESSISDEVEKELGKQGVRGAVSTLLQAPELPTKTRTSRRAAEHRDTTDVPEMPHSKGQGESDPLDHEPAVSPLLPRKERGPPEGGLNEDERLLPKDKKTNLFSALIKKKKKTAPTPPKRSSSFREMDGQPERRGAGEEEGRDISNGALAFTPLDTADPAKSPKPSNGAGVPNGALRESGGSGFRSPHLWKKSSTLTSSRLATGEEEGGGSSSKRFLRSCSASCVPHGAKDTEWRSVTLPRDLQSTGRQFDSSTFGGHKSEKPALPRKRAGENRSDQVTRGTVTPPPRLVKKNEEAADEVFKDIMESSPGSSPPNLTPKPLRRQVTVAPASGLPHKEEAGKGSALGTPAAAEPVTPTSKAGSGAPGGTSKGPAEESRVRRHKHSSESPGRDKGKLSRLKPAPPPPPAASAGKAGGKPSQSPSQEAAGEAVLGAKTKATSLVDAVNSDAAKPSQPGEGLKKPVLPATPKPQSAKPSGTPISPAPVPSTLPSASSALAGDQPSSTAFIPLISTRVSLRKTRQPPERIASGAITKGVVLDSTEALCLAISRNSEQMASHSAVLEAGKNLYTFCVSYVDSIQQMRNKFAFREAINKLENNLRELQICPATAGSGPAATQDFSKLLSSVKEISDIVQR
Excerpt: as §1

[4] = target: Mitogen-activated protein kinase 1 (Homo sapiens, UniProt P28482); assay: In Vitro Activity Assay
Mitogen-activated protein kinase 1, sequence (P28482 whole entry): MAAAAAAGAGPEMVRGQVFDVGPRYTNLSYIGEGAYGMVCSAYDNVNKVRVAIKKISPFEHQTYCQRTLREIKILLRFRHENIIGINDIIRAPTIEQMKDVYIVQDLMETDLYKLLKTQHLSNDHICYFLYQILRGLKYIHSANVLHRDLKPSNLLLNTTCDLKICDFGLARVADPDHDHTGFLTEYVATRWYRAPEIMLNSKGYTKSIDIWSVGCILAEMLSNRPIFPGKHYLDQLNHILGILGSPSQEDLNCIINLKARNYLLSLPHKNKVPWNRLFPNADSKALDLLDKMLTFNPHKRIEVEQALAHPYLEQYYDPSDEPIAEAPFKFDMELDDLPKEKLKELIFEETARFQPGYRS
Excerpt: as §1

[5] = target: Mitogen-activated protein kinase 14 (Homo sapiens, UniProt Q16539); assay: In Vitro Activity Assay
Mitogen-activated protein kinase 14, sequence (Q16539 whole entry): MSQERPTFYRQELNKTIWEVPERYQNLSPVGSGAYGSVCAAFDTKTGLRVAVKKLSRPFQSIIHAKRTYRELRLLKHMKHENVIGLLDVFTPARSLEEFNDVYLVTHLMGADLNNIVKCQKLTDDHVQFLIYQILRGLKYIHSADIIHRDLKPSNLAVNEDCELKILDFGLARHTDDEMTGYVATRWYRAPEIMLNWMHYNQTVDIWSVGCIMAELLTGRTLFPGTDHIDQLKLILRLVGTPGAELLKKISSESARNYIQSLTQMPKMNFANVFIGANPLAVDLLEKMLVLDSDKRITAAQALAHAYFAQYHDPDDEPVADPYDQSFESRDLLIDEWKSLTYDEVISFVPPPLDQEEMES
Excerpt: as §1

[6] = target: Tyrosine-protein kinase Lck (Homo sapiens, UniProt P06239); assay: In Vitro Activity Assay
Tyrosine-protein kinase Lck, sequence (P06239 whole entry): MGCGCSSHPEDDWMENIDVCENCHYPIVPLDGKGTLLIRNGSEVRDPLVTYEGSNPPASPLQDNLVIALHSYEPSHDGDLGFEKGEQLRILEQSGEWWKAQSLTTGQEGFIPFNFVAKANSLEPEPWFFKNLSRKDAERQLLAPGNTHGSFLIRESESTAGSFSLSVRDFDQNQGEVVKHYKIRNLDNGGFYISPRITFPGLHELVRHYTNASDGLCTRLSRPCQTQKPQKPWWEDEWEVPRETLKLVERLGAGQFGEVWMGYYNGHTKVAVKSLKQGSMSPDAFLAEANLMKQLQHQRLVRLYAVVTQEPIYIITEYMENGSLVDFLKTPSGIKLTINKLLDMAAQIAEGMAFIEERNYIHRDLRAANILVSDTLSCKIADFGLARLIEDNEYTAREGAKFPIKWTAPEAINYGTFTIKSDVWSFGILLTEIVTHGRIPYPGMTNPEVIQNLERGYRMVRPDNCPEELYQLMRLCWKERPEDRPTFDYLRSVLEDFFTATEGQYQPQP
Excerpt: as §1

[7] = target: Proto-oncogene tyrosine-protein kinase Src (Gallus gallus, UniProt P00523); assay: In Vitro Activity Assay
Excerpt: as §1

[8] = target: Dual specificity protein kinase CLK1 (Homo sapiens, UniProt P49759); assay: In Vitro Activity Assay
Dual specificity protein kinase CLK1, sequence (P49759 whole entry): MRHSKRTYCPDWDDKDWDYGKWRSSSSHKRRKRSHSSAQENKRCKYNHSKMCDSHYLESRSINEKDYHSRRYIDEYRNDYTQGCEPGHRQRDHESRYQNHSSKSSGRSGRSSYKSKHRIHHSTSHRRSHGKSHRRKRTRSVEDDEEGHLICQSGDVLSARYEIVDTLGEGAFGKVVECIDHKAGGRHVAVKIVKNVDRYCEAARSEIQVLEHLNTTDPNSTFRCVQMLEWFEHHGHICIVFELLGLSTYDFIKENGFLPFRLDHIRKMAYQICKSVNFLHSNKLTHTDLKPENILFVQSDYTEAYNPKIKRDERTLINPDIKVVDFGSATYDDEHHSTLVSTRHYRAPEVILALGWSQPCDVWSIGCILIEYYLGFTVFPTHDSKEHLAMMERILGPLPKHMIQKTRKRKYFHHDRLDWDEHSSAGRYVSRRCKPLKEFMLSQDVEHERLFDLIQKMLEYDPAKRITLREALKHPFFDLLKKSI
Excerpt: as §1

[9] = target: T1, Mitogen-activated protein kinase kinase kinase 5 (Homo sapiens, UniProt Q99683); assay: In Vitro Activity Assay
T1 sequence (Q99683 whole entry): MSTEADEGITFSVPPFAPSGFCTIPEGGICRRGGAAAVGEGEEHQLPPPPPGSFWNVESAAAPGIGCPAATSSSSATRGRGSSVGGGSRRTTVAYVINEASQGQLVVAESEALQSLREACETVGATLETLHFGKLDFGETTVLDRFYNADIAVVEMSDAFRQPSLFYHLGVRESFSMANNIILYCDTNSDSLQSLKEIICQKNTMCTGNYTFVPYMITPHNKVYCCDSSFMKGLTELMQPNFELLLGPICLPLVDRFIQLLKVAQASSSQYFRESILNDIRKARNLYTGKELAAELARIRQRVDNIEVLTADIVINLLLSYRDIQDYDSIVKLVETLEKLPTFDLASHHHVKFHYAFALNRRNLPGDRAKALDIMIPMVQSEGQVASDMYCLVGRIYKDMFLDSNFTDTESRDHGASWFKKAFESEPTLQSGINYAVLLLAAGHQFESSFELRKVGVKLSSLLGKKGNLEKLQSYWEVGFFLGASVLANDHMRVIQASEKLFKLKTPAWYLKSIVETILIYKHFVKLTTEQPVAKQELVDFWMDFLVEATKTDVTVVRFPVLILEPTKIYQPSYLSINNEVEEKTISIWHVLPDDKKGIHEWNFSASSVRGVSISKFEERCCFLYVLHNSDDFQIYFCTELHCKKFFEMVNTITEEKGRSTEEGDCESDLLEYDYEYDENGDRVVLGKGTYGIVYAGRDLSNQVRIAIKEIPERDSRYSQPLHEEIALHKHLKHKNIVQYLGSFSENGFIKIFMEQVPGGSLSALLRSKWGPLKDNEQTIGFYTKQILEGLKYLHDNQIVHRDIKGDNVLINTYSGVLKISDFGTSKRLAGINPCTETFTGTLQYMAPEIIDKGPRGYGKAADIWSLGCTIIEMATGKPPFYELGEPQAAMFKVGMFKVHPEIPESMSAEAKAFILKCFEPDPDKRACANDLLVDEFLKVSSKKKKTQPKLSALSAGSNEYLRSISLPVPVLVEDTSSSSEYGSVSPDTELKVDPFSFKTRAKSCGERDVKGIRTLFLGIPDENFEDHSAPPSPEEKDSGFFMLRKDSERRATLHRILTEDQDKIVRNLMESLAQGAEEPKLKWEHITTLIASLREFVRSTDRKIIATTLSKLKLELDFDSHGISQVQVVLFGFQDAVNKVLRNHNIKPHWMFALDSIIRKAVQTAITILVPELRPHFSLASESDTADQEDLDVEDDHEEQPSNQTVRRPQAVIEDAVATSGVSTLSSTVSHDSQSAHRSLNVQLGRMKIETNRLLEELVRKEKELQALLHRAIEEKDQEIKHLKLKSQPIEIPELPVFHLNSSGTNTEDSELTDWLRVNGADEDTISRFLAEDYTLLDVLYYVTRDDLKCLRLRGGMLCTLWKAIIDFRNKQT
Excerpt: as §1

[10] = target: Tyrosine-protein kinase HCK (Homo sapiens, UniProt P08631); assay: In Vitro Activity Assay
Tyrosine-protein kinase HCK, sequence (P08631 whole entry): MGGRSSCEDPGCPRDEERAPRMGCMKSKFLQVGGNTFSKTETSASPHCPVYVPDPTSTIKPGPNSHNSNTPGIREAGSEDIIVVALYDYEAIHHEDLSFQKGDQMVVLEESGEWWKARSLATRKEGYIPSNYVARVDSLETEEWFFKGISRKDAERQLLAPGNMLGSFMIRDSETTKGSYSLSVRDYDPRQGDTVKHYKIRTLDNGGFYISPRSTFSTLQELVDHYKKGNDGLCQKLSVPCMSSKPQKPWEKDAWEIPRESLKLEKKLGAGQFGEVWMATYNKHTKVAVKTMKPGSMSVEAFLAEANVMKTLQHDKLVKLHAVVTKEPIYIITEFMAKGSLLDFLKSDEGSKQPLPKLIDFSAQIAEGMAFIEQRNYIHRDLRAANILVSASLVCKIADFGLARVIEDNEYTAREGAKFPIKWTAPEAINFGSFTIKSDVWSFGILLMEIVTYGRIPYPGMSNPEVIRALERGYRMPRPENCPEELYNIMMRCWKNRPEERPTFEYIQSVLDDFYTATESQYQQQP
Excerpt: as §1

[11] = target: cAMP-dependent protein kinase catalytic subunit alpha (Homo sapiens, UniProt P17612); assay: In Vitro Activity Assay
Excerpt: as §1

[12] = target: Serine/threonine-protein kinase PAK 4 (Homo sapiens, UniProt O96013); assay: In Vitro Activity Assay
Serine/threonine-protein kinase PAK 4, sequence (O96013 whole entry): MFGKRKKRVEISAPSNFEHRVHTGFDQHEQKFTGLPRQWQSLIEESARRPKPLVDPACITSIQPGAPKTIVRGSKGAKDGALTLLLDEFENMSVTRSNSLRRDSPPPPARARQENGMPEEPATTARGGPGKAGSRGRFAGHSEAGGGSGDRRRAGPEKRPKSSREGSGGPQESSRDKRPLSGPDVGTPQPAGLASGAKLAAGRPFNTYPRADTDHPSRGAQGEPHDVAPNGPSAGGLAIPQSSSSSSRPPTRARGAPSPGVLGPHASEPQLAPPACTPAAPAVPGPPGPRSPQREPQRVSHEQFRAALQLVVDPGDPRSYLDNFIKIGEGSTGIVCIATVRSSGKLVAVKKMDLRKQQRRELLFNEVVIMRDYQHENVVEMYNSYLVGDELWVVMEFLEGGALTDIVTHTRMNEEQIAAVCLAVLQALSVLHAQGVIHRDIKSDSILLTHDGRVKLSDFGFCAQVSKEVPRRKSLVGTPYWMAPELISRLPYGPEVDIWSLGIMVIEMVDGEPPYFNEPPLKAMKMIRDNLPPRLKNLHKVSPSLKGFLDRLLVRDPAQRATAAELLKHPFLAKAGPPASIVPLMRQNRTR
Excerpt: as §1

[13] = target: T2, Interleukin-1 receptor-associated kinase 4 (Homo sapiens, UniProt Q9NWZ3); assay: In Vitro Activity Assay
T2 sequence (Q9NWZ3 whole entry): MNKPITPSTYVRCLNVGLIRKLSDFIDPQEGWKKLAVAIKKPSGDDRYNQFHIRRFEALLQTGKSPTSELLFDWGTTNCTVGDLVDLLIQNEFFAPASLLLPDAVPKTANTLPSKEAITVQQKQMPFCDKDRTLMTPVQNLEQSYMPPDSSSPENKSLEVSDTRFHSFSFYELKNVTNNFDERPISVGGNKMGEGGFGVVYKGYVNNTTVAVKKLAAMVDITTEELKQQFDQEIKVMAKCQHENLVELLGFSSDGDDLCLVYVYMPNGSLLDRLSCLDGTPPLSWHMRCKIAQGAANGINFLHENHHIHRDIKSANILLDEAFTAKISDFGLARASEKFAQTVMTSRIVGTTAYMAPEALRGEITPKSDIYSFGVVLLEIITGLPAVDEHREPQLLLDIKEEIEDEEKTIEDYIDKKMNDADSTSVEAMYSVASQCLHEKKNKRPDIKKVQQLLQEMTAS
Excerpt: as §1

[14] = target: T3, Tyrosine-protein kinase ABL1 [1-999,Y253H] (Homo sapiens, UniProt P00519, Y253H); assay: In Vitro Activity Assay
T3 construct: 1-999
Excerpt: as §1

[15] = target: T4, Ephrin type-A receptor 3 [1-975] (Homo sapiens, UniProt P29320); assay: In Vitro Activity Assay
T4 construct: 1-975
T4 sequence (P29320 whole entry): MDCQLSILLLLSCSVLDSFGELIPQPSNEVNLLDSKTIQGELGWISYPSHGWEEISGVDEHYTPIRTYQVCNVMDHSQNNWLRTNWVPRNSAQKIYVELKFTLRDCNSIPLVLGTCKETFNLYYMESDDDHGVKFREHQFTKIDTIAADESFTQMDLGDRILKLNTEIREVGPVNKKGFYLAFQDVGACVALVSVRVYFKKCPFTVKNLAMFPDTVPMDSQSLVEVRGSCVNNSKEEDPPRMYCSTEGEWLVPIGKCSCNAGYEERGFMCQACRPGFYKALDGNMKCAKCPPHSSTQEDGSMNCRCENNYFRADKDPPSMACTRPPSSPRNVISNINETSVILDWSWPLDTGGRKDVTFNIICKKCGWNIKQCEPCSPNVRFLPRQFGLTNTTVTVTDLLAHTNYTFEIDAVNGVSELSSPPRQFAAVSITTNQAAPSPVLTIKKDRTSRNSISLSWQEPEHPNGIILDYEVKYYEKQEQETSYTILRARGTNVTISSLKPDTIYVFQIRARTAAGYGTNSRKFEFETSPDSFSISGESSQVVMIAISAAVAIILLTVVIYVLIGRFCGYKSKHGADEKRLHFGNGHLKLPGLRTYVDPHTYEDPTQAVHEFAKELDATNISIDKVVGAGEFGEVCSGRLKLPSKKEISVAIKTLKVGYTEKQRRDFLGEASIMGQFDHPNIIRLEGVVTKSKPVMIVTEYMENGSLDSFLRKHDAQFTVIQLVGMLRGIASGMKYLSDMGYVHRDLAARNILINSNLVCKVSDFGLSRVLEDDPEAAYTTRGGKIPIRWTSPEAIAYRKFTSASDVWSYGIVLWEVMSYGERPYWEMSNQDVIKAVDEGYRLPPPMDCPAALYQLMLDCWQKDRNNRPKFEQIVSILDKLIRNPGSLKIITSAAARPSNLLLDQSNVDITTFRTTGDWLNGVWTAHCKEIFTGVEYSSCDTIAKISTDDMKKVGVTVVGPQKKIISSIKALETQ
Excerpt: as §1

[16] = target: T5, Tyrosine-protein kinase ABL1 [1-999,E255V] (Homo sapiens, UniProt P00519, E255V); assay: In Vitro Activity Assay
T5 construct: 1-999
Excerpt: as §1

Serine/threonine-protein kinase PAK 5 (Homo sapiens), sequence (Q9P286 whole entry, looked up): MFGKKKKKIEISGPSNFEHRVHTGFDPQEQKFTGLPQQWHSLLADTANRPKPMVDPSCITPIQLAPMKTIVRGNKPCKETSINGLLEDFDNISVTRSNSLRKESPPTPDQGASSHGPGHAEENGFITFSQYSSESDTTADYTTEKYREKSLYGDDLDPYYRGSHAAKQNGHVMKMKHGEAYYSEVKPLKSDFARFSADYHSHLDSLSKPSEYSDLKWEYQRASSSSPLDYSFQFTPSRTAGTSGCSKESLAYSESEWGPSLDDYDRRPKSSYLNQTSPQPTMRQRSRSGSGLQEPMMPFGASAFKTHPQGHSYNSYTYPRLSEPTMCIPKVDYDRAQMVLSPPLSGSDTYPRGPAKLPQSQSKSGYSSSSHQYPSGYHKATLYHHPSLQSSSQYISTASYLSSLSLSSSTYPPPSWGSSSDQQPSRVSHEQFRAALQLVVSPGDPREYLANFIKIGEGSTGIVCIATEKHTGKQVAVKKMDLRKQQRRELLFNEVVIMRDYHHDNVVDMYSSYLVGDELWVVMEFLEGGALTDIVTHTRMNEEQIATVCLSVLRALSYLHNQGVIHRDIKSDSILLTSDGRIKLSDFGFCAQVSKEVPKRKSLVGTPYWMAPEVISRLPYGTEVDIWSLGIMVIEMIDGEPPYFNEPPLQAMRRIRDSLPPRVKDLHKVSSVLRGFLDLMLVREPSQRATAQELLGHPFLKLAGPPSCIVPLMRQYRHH

IC50 [1]	IC50 [2]	IC50 [3]	IC50 [4]	IC50 [5]	IC50 [6]	IC50 [7]	IC50 [8]	IC50 [9]	IC50 [10]	IC50 [11]	IC50 [12]	IC50 [13]	further results	Structure (SMILES)
> 10000 nM	16.3 nM	6.6 nM	> 10000 nM	< 13 nM	< 10 nM	3.3 nM	> 10000 nM	> 10000 nM	9.6 nM	> 10000 nM	> 10000 nM	> 10000 nM	–	Cc1ccc(NC(=O)c2cccc(C(F)(F)F)c2)cc1Nc1ncccc1-c1ncnc(Nc2ccc(OCCNC(=O)COCCOCCOCCOCCN)cc2)n1 [Amine compound, 12a]
> 10000 nM	140 nM	6.6 nM	> 10000 nM	< 13 nM	< 10 nM	5.7 nM	> 10000 nM	> 10000 nM	6.3 nM	> 10000 nM	> 10000 nM	> 10000 nM	–	Cc1ccc(NC(=O)c2cccc(C(F)(F)F)c2)cc1Nc1ncccc1-c1cc(Nc2ccc(OCCNC(=O)COCCOCCOCCOCCN)cc2)ncn1 [Amine compound, 13a]
–	–	–	–	25.5 nM	–	25.4 nM	–	–	–	–	–	–	Kd [1]: > 1000 nM; Kd [2]: 17 nM; Kd [14]: 9.4 nM; Kd [3]: 9.9 nM; Kd [5]: 35 nM; Kd [15]: 27 nM; Kd [6]: 20 nM; Kd [7]: 13 nM and 11 nM; Kd [8]: > 1000 nM; Kd [9]: > 1000 nM; Kd [10]: 8.7 nM; Kd [12]: > 1000 nM; Kd [16]: 45 nM	Cc1ccc(NC(=O)c2cccc(C(F)(F)F)c2)cc1Nc1ncccc1-c1ncnc(Nc2ccc(OCCNC(=O)CCCCNC(=O)CCC3=[N+]4B(F)n5c(C)cc(C)c5C=C4C=C3)cc2)n1 [BODIPY-labeled probe, 4a]
